Columns and labels:
[1] = target: T1, Protein farnesyltransferase (Homo sapiens, UniProt P49354+P49356); assay: Inhibition of [3H]FPP incorporation into H-ras CVLS by Farnesyltransferase; format: protein-complex assay
[2] = Inhibition of soft agar colony formation in H-Ras transformed cells; format: functional, cell-based
[3] = Area under the curve in rats by administering perorally; format: ADME; details: rat, in vivo, po
[4] = Inhibition of H-Ras transformed NIH3T3 cell proliferation; format: functional, cell-based
[5] = Inhibition of COS cell proliferation; format: functional, cell-based
[6] = Oral bioavailability in rat; format: ADME, organism-based; details: in vivo
[7] = target: T1, Protein farnesyltransferase; assay: Percent inhibition of [3H]FPP incorporation into H-ras CVLS by Farnesyltransferase at 17; format: protein-complex assay; details: concentration not given here

Row | SMILES | IC50 [2] [µM] | AUC [3] [µg/h/mL] | other results
1 | O=C(Cc1cc[n+]([O-])cc1)N1CCC([C@@H]2c3ncc(Br)cc3C=Cc3cc(Cl)cc(Br)c32)CC1 | 0.03 | 15.5 | IC50 [1]: 0.00032 µM
2 | NC(=O)N1CCC(CC(=O)N2CCC([C@H]3c4ncc(Br)cc4CCc4cc(Cl)cc(Br)c43)CC2)CC1 [LONAFARNIB] | 0.07 | 24.1 | IC50 [4]: 72 µM; IC50 [5]: 0.01 µM; bioavailability [6]: 76%
3 | O=C(Cc1cc[n+]([O-])cc1)N1CCC([C@H]2c3ncc(Br)cc3C=Cc3cc(Cl)cc(Br)c32)CC1 |  |  | inhibition [7]: 44%
4 | NC(=O)N1CCC(CC(=O)N2CCC([C@@H]3c4ncc(Br)cc4C=Cc4cc(Cl)cc(Br)c43)CC2)CC1 |  | 7 | 
5 | CS(=O)(=O)N1CCC([C@@H]2c3ncc(Br)cc3C=Cc3cc(Cl)cc(Br)c32)CC1 | > 0.5 | 45.4 | 
